Test results published in the supplement of paper PMC7840683.
Where a name gives a salt, the structure may show the parent alone. ± gives the standard deviation of the averaged measurements.

Tested on: HepaRG
Assay: LDH release cytotoxicity, % of total lysis control; higher = more cytotoxic
Conditions: 48 h
Outline: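 Percent cytotoxicity was scaled between on-plate vehicle and total lysis controls, then averaged over duplicate wells. The cells were single-lot HepaRG on collagen I-coated 96-well plates, exposed for 48 h to eight-point half-log test chemical series topping at 100 µM in serum-free induction medium with 0.5% DMSO. Total lysis wells got 0.1% Triton X, and LDH in 50 µL spent medium was read as resorufin fluorescence (CytoTox-ONE, Tecan Safire).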

| Compound | LDH release cytotoxicity (0.03162 µM) [%] | LDH release cytotoxicity (0.1 µM) [%] | LDH release cytotoxicity (0.3162278 µM) [%] | LDH release cytotoxicity (1 µM) [%] | LDH release cytotoxicity (3.16228 µM) [%] | LDH release cytotoxicity (10 µM) [%] | LDH release cytotoxicity (31.6228 µM) [%] | LDH release cytotoxicity (100 µM) [%] | LDH release cytotoxicity (0.031623 µM) [%] | LDH release cytotoxicity (0.316228 µM) [%] | LDH release cytotoxicity (0.031939 µM) [%] | LDH release cytotoxicity (0.101 µM) [%] | LDH release cytotoxicity (0.31939 µM) [%] | LDH release cytotoxicity (1.01 µM) [%] | LDH release cytotoxicity (3.1939 µM) [%] | LDH release cytotoxicity (10.1 µM) [%] | LDH release cytotoxicity (31.939 µM) [%] | LDH release cytotoxicity (101 µM) [%] |
| --- | --- | --- | --- | --- | --- | --- | --- | --- | --- | --- | --- | --- | --- | --- | --- | --- | --- | --- |
| CC1(C)C(C=C(Cl)Cl)C1C(=O)OCc1cccc(Oc2ccccc2)c1 (configuration not stated) [Permethrin] | -0.121 ± 0.81 | -0.859 ± 2 | -0.0615 ± 0.15 | -1.15 ± 0.33 | -1.16 ± 0.27 | -1.02 ± 1 | -1.28 ± 0.3 | -0.44 ± 0.19 | – | – | – | – | – | – | – | – | – | – |
| c1ccc2c(c1)ccc1ccccc12 [Phenanthrene] | -0.492 ± 0.39 | -0.112 ± 0.47 | -1.07 ± 0.35 | -1.03 ± 0.62 | -1.55 ± 0.095 | -0.467 ± 0.087 | -0.00782 ± 0.7 | 0.23 ± 0.29 | – | – | – | – | – | – | – | – | – | – |
| CCC1(c2ccccc2)C(=O)N=C(O)NC1=O (configuration not stated) [Phenobarbital sodium] | -1.03 ± 0.11 | -0.9 ± 0.78 | -1.41 ± 0.58 | -0.43 ± 0.71 | -0.289 ± 0.44 | -0.0423 ± 0.88 | 0.694 ± 0.48 | 1.83 ± 0.84 | – | – | – | – | – | – | – | – | – | – |
| Oc1ccccc1 [Phenol] | -1.29 ± 0.31 | -1.84 ± 0.82 | -1.69 ± 0.2 | -1.85 ± 0.26 | -1.67 ± 0.035 | -1.64 ± 0.055 | -1.18 ± 0.073 | 0.202 ± 0.087 | – | – | – | – | – | – | – | – | – | – |
| O=C1OC(c2ccc(O)cc2)(c2ccc(O)cc2)c2ccccc21 [Phenolphthalein] | -0.731 ± 0.29 | -1.59 ± 0.42 | -0.412 ± 1 | -1.68 ± 1 | -0.391 ± 0.89 | 0.41 ± 0.52 | 0.57 ± 0.34 | 10.5 ± 2 | – | – | – | – | – | – | – | – | – | – |
| O=C(O)c1ccccc1C(c1ccc(O)cc1)c1ccc(O)cc1 [Phenolphthalin] | -1.69 ± 0.25 | -1.91 ± 1.3 | -2.15 ± 0.91 | -2.6 ± 0.41 | -1.53 ± 0.2 | -1.03 ± 0.2 | -1.15 ± 0.7 | 0.0929 ± 0.98 | – | – | – | – | – | – | – | – | – | – |
| c1ccc2c(c1)Nc1ccccc1S2 [Phenothiazine] | -1.44 ± 0.67 | -0.242 ± 0.75 | -1.08 ± 1 | -2.16 ± 0.13 | -1.87 ± 0.84 | -1.1 ± 0.59 | 0.496 ± 0.65 | 3.43 ± 0.83 | – | – | – | – | – | – | – | – | – | – |
| CC(=O)[O][Hg][c]1ccccc1 [Phenylmercuric acetate] | -1.79 ± 0.027 | -0.0392 ± 0.1 | 3.3 ± 0.71 | 13.6 ± 5 | 23.5 ± 4.7 | 45.48 ± 0.45 | -7.82 ± 0.28 | -8.63 ± 0.18 | – | – | – | – | – | – | – | – | – | – |
| CCOP(=S)(OCC)SCSCC [Phorate] | -1.85 ± 0.87 | -2.54 ± 0.18 | -2.48 ± 0.53 | -2.38 ± 0.48 | -2.32 ± 0.28 | -1.2 ± 0.89 | -1.22 ± 0.69 | -0.0088 ± 0.35 | – | – | – | – | – | – | – | – | – | – |
| CCOP(=S)(OCC)SCn1c(=O)oc2cc(Cl)ccc21 [Phosalone] | -2.44 ± 0.92 | -3.01 ± 0.25 | -2.19 ± 0.66 | -2.28 ± 0.84 | -2.21 ± 0.19 | -2.4 ± 0.9 | -1.63 ± 1.2 | -1.09 ± 0.67 | – | – | – | – | – | – | – | – | – | – |
| COP(=S)(OC)SCN1C(=O)c2ccccc2C1=O [Phosmet] | -1.04 ± 0.14 | -1.58 ± 0.89 | -0.933 ± 0.42 | -1.6 ± 0.93 | -1.56 ± 0.51 | -1.14 ± 0.52 | -1.65 ± 0.99 | 0.331 ± 0.7 | – | – | – | – | – | – | – | – | – | – |
| Nc1c(Cl)c(Cl)nc(C(=O)O)c1Cl [Picloram] | – | -3.68 ± 0.1 | – | -3.09 ± 0.29 | -2.76 ± 0.56 | -2.73 ± 0.51 | -2.11 ± 0.71 | 0.666 ± 0.78 | -0.672 ± 0.84 | -3.74 ± 1.5 | – | – | – | – | – | – | – | – |
| COC=C(C(=O)OC)c1ccccc1COc1cccc(C(F)(F)F)n1 [Picoxystrobin] | -4.13 ± 1 | -3.11 ± 1.4 | -4.04 ± 0.58 | -4.28 ± 1.9 | -5.14 ± 0.47 | 20 ± 2.6 | 37 ± 6.9 | 60 ± 9.4 | – | – | – | – | – | – | – | – | – | – |
| CCc1ccc(CCOc2ccc(CC3SC(=O)NC3=O)cc2)nc1 (configuration not stated) [Pioglitazone hydrochloride] | -0.765 ± 0.13 | -1.11 ± 0.35 | -1.39 ± 0.062 | -1.98 ± 0.67 | -2.26 ± 0.28 | -3.4 ± 0.42 | -3.94 ± 0.23 | -0.63 ± 0.3 | – | – | – | – | – | – | – | – | – | – |
| C1CNCCN1 [Piperazine] | -6.9 ± 0.6 | -7.27 ± 0.36 | -6.65 ± 1 | -7.16 ± 1.9 | -6.57 ± 0.29 | -6.04 ± 1.4 | -6.14 ± 0.77 | -6.01 ± 1.2 | – | – | – | – | – | – | – | – | – | – |
| CCCCOCCOCCOCc1cc2c(cc1CCC)OCO2 [Piperonyl butoxide] | – | – | – | – | – | – | – | – | – | – | -0.462 ± 1.1 | -2.71 ± 0.75 | -2.69 ± 1.8 | -3.07 ± 0.035 | -2.38 ± 0.19 | -1.93 ± 0.26 | -0.729 ± 0.32 | 4.54 ± 0.55 |
| CS(=O)(=O)c1ccc(C(CC2CCC(=O)C2)C(=O)Nc2cnccn2)cc1Cl (configuration not stated) [Piragliatin] | -0.668 ± 0.37 | -1.54 ± 1.1 | -0.661 ± 0.31 | -1.64 ± 1 | -1.28 ± 0.2 | -0.831 ± 0.26 | -1.24 ± 0.96 | -0.692 ± 0.1 | – | – | – | – | – | – | – | – | – | – |
| Cc1nc(N(C)C)nc(OC(=O)N(C)C)c1C [Pirimicarb] | -1.14 ± 0.57 | -1.49 ± 0.94 | -1.89 ± 0.61 | -1.97 ± 1.2 | -1.7 ± 0.12 | -1.84 ± 0.15 | -1.4 ± 0.24 | -0.895 ± 1.2 | – | – | – | – | – | – | – | – | – | – |
| CCN(CC)c1nc(C)cc(OP(=S)(OC)OC)n1 [Pirimiphos-methyl] | 0.287 ± 2 | -1.19 ± 1.6 | -1.08 ± 0.22 | -0.906 ± 0.67 | -1.49 ± 0.077 | -0.783 ± 0.59 | -1.01 ± 0.3 | -1.29 ± 0.47 | – | – | – | – | – | – | – | – | – | – |
